Tests used:
[1] = tested on: TP complement components (C5b,6, C7, C8, C9); experiment: terminal pathway hemolytic assay using purified complement components; format: cell-based, human; settings: cRBC, purified C5b,6, C7, C8, C9
Description: For serum-based terminal pathway (TP) hemolytic assays, components were diluted in GVB containing 10 mM EDTA (GVB-E), the latter added to prevent upstream complement activation and generation of endogenous C5b,6. 2% NHS was used as the source of C7, C8, and C9, and hemolysis of chicken erythrocytes (cRBC) (3.3×10^8 cells/mL) was initiated by addition of exogenous purified C5b,6, the concentration of which was determined from pilot studies to yield ˜70-80% lysis at 30 min. No C5b,6 activity was detected in the NHS prior to initiating the reaction. For some experiments, instead of NHS, purified terminal pathway complement components were used in the TP assays. In these assays, in a final volume of 300 uL GVB, lysis was achieved by the sequential addition of the following components: cRBC (3.3×10^8 cells/mL), C5b,6 (20 μM), C7 (15 nM), C8 (10 nM), and C9 (25 nM). The unlysed cell pellet was removed by centrifugation and lysis was measured immediately after the 30-minute reaction. […]
A standard curve for the terminal pathway assay using purified complement components (FIG. 3) was generated using C7 (15 nM), C8 (10 nM), and C9 (25 nM) in excess, and hemolysis of chicken erythrocytes after 30 min at 37° C. was determined as dependent on the concentration of purified C5b,6. […]

[2] = target: T1, C1-esterase inhibitor (C1-inh) (Homo sapiens, UniProt P05155); experiment: C1s-mediated cleavage of C2 in the presence of C1-inh (SDS-PAGE); format: biochemical; settings: 10-500 μM, 6 nM C1s, 5 nM C1-inh
T1 sequence (P05155 23-500): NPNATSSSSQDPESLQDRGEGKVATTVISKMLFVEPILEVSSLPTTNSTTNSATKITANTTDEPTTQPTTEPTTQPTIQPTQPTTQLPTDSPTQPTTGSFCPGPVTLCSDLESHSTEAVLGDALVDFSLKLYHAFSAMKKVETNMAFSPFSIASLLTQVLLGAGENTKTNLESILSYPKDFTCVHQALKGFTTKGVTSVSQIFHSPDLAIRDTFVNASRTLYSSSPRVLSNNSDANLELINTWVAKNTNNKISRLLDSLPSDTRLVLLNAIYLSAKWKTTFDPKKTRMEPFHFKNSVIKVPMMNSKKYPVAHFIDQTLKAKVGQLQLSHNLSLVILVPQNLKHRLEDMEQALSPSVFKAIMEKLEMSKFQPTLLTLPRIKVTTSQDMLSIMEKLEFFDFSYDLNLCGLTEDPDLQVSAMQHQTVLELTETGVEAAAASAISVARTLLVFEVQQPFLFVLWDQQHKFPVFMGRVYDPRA
Description: We tested whether polyP affects the inhibitory properties of C1-inh on C1s-mediated cleavage and activation of complement factor C4 and C2. SDS-PAGE followed by coomassie staining of gels was used to monitor cleavage of C4 by C1s in the presence/absence of C1-inh and/or polyP in a purified system.
Briefly, 6 nM C1s with 10-500 μM of polyP1000 were incubated in 20 mM Hepes, 0.15 M NaCl, pH 7.5, 0.01% Tween buffer for 90 minutes at 37° C. 5 nM C1-inh was added and incubated for 30 minutes. C2 was added and incubated for 5 minutes at 37° C. The reactions were quenched with 5× loading buffer and β-ME.

O=P(O)(O)O [P1, Orthophosphate]
effect on erythrocyte lysis, purified TP components [1]: had no effect | effect on activity of C1-inh in interfering with C1s-mediated cleavage of C2 [2]: had no effect

From patent US9408871B2, “Methods for inhibiting complement activation and uses thereof” (THE UNIVERSITY OF BRITISH COLUMBIA, priority 2013, dated 2016)
